Source: patent EP4417602A1, “SUBSTITUTED PYRAZOLE CARBOXAMIDES, SALTS THEREOF AND THEIR USE AS HERBICIDALLY ACTIVE SUBSTANCES” (Bayer AG, priority 2023, dated 2024)

System: LOLRI
Assay: A. Herbicidal pre-emergence action on harmful plants (Tables A)
Type: in vivo, Lolium rigidum
Conditions: application rate 80 g/ha; visual grading after ca. 3 weeks vs untreated controls; 100% = plants have died off, 0% = as control plants
In short: (§1)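 Greenhouse pre-emergence test: compound applied to the soil surface at 1280 g/ha or below, and herbicidal effect rated visually at ca. 3 weeks on a 0–100% scale against untreated plants.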

| Compound | pre-emergence activity against LOLRI [%] |
| --- | --- |
| COCc1nn(C)cc1C(=O)N1CCCC1Cc1ccccc1F (single isomer, unassigned) [Example I-003] | 100 |

Same assay, conditions: application rate 320 g/ha; visual grading after ca. 3 weeks vs untreated controls; 100% = plants have died off, 0% = as control plants

| Compound | pre-emergence activity against LOLRI [%] |
| --- | --- |
| COCc1nn2c(c1C(=O)N1CCCC1Cc1ccccc1F)CCC2 (racemic) [Example I-022] | 100 |
| C=C(c1ccccc1F)C1CCCN1C(=O)c1cn(C)nc1COC (racemic) [Example I-023] | 100 |
| COCc1nn(C)cc1C(=O)N1CCCC1Cc1ccccc1F (single isomer, unassigned) [Example I-003] | 100 |

Same assay, conditions: application rate 1280 g/ha; visual grading after ca. 3 weeks vs untreated controls; 100% = plants have died off, 0% = as control plants

| Compound | pre-emergence activity against LOLRI [%] |
| --- | --- |
| COCc1nn2c(c1C(=O)N1CCCC1Cc1ccccc1F)CCC2 (racemic) [Example I-022] | 100 |
| C=C(c1ccccc1F)C1CCCN1C(=O)c1cn(C)nc1COC (racemic) [Example I-023] | 100 |
| COCc1nn(C)cc1C(=O)N1CCCC1Cc1ccccc1F (single isomer, unassigned) [Example I-003] | 100 |

System: SETVI
Assay: as above
Type: in vivo, Setaria viridis
Conditions: application rate 80 g/ha; visual grading after ca. 3 weeks vs untreated controls; 100% = plants have died off, 0% = as control plants
In short: as §1

| Compound | pre-emergence activity against SETVI [%] |
| --- | --- |
| COCc1nn(C)cc1C(=O)N1CCCC1Cc1ccccc1F (single isomer, unassigned) [Example I-003] | 100 |

Same assay, conditions: application rate 320 g/ha; visual grading after ca. 3 weeks vs untreated controls; 100% = plants have died off, 0% = as control plants

| Compound | pre-emergence activity against SETVI [%] |
| --- | --- |
| COCc1nn2c(c1C(=O)N1CCCC1Cc1ccccc1F)CCC2 (racemic) [Example I-022] | 90 |
| C=C(c1ccccc1F)C1CCCN1C(=O)c1cn(C)nc1COC (racemic) [Example I-023] | 90 |
| COCc1nn(C)cc1C(=O)N1CCCC1Cc1ccccc1F (single isomer, unassigned) [Example I-003] | 100 |

Same assay, conditions: application rate 1280 g/ha; visual grading after ca. 3 weeks vs untreated controls; 100% = plants have died off, 0% = as control plants

| Compound | pre-emergence activity against SETVI [%] |
| --- | --- |
| COCc1nn2c(c1C(=O)N1CCCC1Cc1ccccc1F)CCC2 (racemic) [Example I-022] | 90 |
| C=C(c1ccccc1F)C1CCCN1C(=O)c1cn(C)nc1COC (racemic) [Example I-023] | 90 |
| COCc1nn(C)cc1C(=O)N1CCCC1Cc1ccccc1F (single isomer, unassigned) [Example I-003] | 100 |

System: ALOMY
Assay: as above
Type: in vivo, Alopecurus myosuroides
Conditions: application rate 320 g/ha; Table A9b
In short: as §1

| Compound | pre-emergence activity against ALOMY [%] |
| --- | --- |
| COCc1nn2c(c1C(=O)N1CCCC1Cc1ccccc1F)CCC2 (racemic) [Example I-022] | 90 |
| COCc1nn(C)cc1C(=O)N1CCCC1Cc1ccccc1F (single isomer, unassigned) [Example I-003] | 100 |

Same assay, conditions: application rate 1280 g/ha; Table A9a

| Compound | pre-emergence activity against ALOMY [%] |
| --- | --- |
| COCc1nn2c(c1C(=O)N1CCCC1Cc1ccccc1F)CCC2 (racemic) [Example I-022] | 90 |
| C=C(c1ccccc1F)C1CCCN1C(=O)c1cn(C)nc1COC (racemic) [Example I-023] | 90 |
| COCc1nn(C)cc1C(=O)N1CCCC1Cc1ccccc1F (single isomer, unassigned) [Example I-003] | 100 |

System: ECHCG
Assay: B. Herbicidal post-emergence action on harmful plants (Tables B)
Type: in vivo, Echinochloa crus-galli
Conditions: application rate 320 g/ha; Table B2b
In short: (§2)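 Activity was scored visually as % damage (100% = dead, 0% = like untreated) about 3 weeks after treatment. Plants at the one-leaf stage, 2-3 weeks old, were sprayed with WP/EC formulations plus 0.5% additive (600 L/ha water, up to 1280 g/ha). Plants were grown in sandy loam in a greenhouse.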

| Compound | post-emergence activity against ECHCG [%] |
| --- | --- |
| COCc1nn(C)cc1C(=O)N1CCCC1Cc1ccccc1F (single isomer, unassigned) [Example I-003] | 90 |

Same assay, conditions: application rate 1280 g/ha; Table B2a

| Compound | post-emergence activity against ECHCG [%] |
| --- | --- |
| C=C(c1ccccc1F)C1CCCN1C(=O)c1cn(C)nc1COC (racemic) [Example I-023] | 90 |
| COCc1nn(C)cc1C(=O)N1CCCC1Cc1ccccc1F (single isomer, unassigned) [Example I-003] | 90 |

System: POAAN
Assay: as above
Type: in vivo, Poa annua
Conditions: application rate 80 g/ha; Table B7c
In short: as §2

| Compound | post-emergence activity against POAAN [%] |
| --- | --- |
| COCc1nn(C)cc1C(=O)N1CCCC1Cc1ccccc1F (single isomer, unassigned) [Example I-003] | 90 |

Same assay, conditions: application rate 320 g/ha; Table B7b

| Compound | post-emergence activity against POAAN [%] |
| --- | --- |
| COCc1nn(C)cc1C(=O)N1CCCC1Cc1ccccc1F (single isomer, unassigned) [Example I-003] | 90 |

Same assay, conditions: application rate 1280 g/ha; Table B7a

| Compound | post-emergence activity against POAAN [%] |
| --- | --- |
| COCc1nn2c(c1C(=O)N1CCCC1Cc1ccccc1F)CCC2 (racemic) [Example I-022] | 90 |
| C=C(c1ccccc1F)C1CCCN1C(=O)c1cn(C)nc1COC (racemic) [Example I-023] | 90 |
| COCc1nn(C)cc1C(=O)N1CCCC1Cc1ccccc1F (single isomer, unassigned) [Example I-003] | 90 |

System: ALOMY
Assay: C. Herbicidal pre-emergence action, weed and crop plants (Tables C)
Type: in vivo, Alopecurus myosuroides
Conditions: application rate 80 g/ha; Table C2b
Description: (§3) Seeds of mono- and dicotyledonous weed plants and crop plants were sown, in plastic or organic planting pots, in sandy loam and covered with soil. The compounds according to the invention, formulated in the form of wettable powders (WP) or as emulsifiable concentrates (EC), were applied to the surface of the covering soil as aqueous suspension or emulsion, with the addition of 0.5% of an additive, at an application rate of 6001 of water/ha (converted). Following treatment, the pots were placed in a greenhouse and kept under optimum growth conditions for the test plants. The visual grading of the damage to the test plants was carried out after ca. 3 weeks in comparison to untreated controls (herbicidal effect in percent (%): 100% effect = plants have died off, 0% effect = as control plants). Tables C1 to C12 below show the effects of selected compounds of the general formula (I) according to table 1 on various harmful plants and an application rate corresponding to 320 g/ha or below obtained by the experimental procedure mentioned above. Table C1: pre-emergence activity at 320g/ha against KCHSC in %

| Compound | pre-emergence activity against ALOMY [%] |
| --- | --- |
| COCc1nn(C)cc1C(=O)N1CCCC1Cc1ccccc1F (single isomer, unassigned) [Example I-003] | 90 |

Same assay, conditions: application rate 320 g/ha; Table C2a

| Compound | pre-emergence activity against ALOMY [%] |
| --- | --- |
| C=C(c1ccccc1F)C1CCCN1C(=O)c1cn(C)nc1COC (racemic) [Example I-023] | 100 |
| COCc1nn(C)cc1C(=O)N1CCCC1Cc1ccccc1F (single isomer, unassigned) [Example I-003] | 100 |

System: MATIN
Assay: as above
Type: in vivo, Matricaria inodora
Conditions: application rate 320 g/ha; Table C8
Description: as §3

| Compound | pre-emergence activity against MATIN [%] |
| --- | --- |
| C=C(c1ccccc1F)C1CCCN1C(=O)c1cn(C)nc1COC (racemic) [Example I-023] | 80 |
| COCc1nn(C)cc1C(=O)N1CCCC1Cc1ccccc1F (single isomer, unassigned) [Example I-003] | 80 |

System: VIOTR
Assay: as above
Type: in vivo, Viola tricolor
Conditions: application rate 80 g/ha; Table C12b
In short: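 Seeds were sown in sandy loam and covered with soil. WP or EC formulations were sprayed onto the soil surface as aqueous suspension or emulsion with 0.5% additive, at rates of 320 g/ha or below. Plants were kept in a greenhouse, and damage was scored visually after about 3 weeks as % effect versus untreated controls (100% = dead, 0% = like control).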

| Compound | pre-emergence activity against VIOTR [%] |
| --- | --- |
| C=C(c1ccccc1F)C1CCCN1C(=O)c1cn(C)nc1COC (racemic) [Example I-023] | 80 |
| COCc1nn(C)cc1C(=O)N1CCCC1Cc1ccccc1F (single isomer, unassigned) [Example I-003] | 80 |

Same assay, conditions: application rate 320 g/ha; Table C12a

| Compound | pre-emergence activity against VIOTR [%] |
| --- | --- |
| COCc1nn2c(c1C(=O)N1CCCC1Cc1ccccc1F)CCC2 (racemic) [Example I-022] | 80 |
| C=C(c1ccccc1F)C1CCCN1C(=O)c1cn(C)nc1COC (racemic) [Example I-023] | 80 |
| COCc1nn(C)cc1C(=O)N1CCCC1Cc1ccccc1F (single isomer, unassigned) [Example I-003] | 90 |

System: ZEAMX
Assay: D. Pre-emergence effects on crop plants (Tables D)
Type: in vivo, Zea mays
Conditions: crop plant; application rate 80 g/ha; Table D1b
In short: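 Pre-emergence soil-surface treatment at 320 g/ha or lower, using wettable-powder or emulsifiable-concentrate formulations in water plus 0.5% additive, over freshly sown seeds in covered sandy loam. Damage was rated visually as percent versus untreated pots (100% = dead plants) after about 3 weeks of greenhouse growth.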

| Compound | pre-emergence activity against ZEAMX [%] |
| --- | --- |
| COCc1nn2c(c1C(=O)N1CCCC1Cc1ccccc1F)CCC2 (racemic) [Example I-022] | 0 |
| C=C(c1ccccc1F)C1CCCN1C(=O)c1cn(C)nc1COC (racemic) [Example I-023] | 0 |

System: TRZAS
Assay: D. Pre-emergence effects on crop plants (Tables D)
Type: in vivo, Triticum aestivum
Conditions: crop plant; application rate 80 g/ha; Table D2b
Description: Seeds of mono- and dicotyledonous weed plants and crop plants were sown, in plastic or organic planting pots, in sandy loam and covered with soil. The compounds according to the invention, formulated in the form of wettable powders (WP) or as emulsifiable concentrates (EC), were applied to the surface of the covering soil as aqueous suspension or emulsion, with the addition of 0.5% of an additive, at an application rate of 6001 of water/ha (converted).
Following treatment, the pots were placed in a greenhouse and kept under optimum growth conditions for the test plants. The visual grading of the damage to the test plants was carried out after ca. 3 weeks in comparison to untreated controls (herbicidal effect in percent (%): 100% effect = plants have died off, 0% effect = as control plants).
Tables D1 to D5 below show the effects of various compounds of the general formula (I) according to Table 1 on various crop plants and an application rate corresponding to 320 g/ha or below obtained by the experimental procedure mentioned above in Biological Examples, Section C. Table D1a: pre-emergence activity at 320g/ha against ZEAMX in %

| Compound | pre-emergence activity against TRZAS [%] |
| --- | --- |
| COCc1nn2c(c1C(=O)N1CCCC1Cc1ccccc1F)CCC2 (racemic) [Example I-022] | 0 |

System: BRSNW
Assay: F. Post-emergence effects on crop plants (Tables F)
Type: in vivo, Brassica napus
Conditions: application rate 320 g/ha, crop plant
In short: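 Plants were grown in sandy loam in a greenhouse and sprayed post-emergence at the single-leaf stage, 2–3 weeks after sowing. Visual damage was scored after ca. 3 weeks against untreated controls (0% = as control, 100% = dead).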

| Compound | post-emergence activity against BRSNW in % [%] |
| --- | --- |
| COCc1nn2c(c1C(=O)N1CCCC1Cc1ccccc1F)CCC2 (racemic) [Example I-022] | 0 |
| C=C(c1ccccc1F)C1CCCN1C(=O)c1cn(C)nc1COC (racemic) [Example I-023] | 0 |
| COCc1nn(C)cc1C(=O)N1CCCC1Cc1ccccc1F (single isomer, unassigned) [Example I-003] | 0 |
